Experiment [1] has as its system mouse formalin pain model. Nature of the experiment: Mouse formalin pain model (late phase licking). The format is in vivo. Particulars: male NSA mice, 60 mg/kg i.p., 30 minutes prior to formalin; FIG. 5. How it is done:
The analgesic effect of test compounds was assessed in a mouse formalin pain model (Hole et al., 1993, Pain 53:247-254). Male NSA mice weighing between 27 and 30 g were housed with access to food and water ad libitum until the test date. On the day of testing, they were given a period of 1 h to adjust to the test chamber. Test compounds or vehicle control (75% polyethylene glycol in 5% dextrose+water) were administered i.p. at 30 minutes prior to the administration of formalin. A solution of 20 μl of 2.5% formalin was then injected subcutaneously into the dorsal side of the hind paw of the test mouse. Immediately following formalin injection, the mice were observed over the next 50 min and the time spent licking the injected hind paw was recorded. The observation time was broken down into 5 minute “bins”, with 10 bins in total. The first 5-min bin is the early phase, considered to be reflective of acute pain. Bins three to ten make up the late phase, considered a measure of chronic inflammatory pain. The results for the late phase are expressed as the averaged mean time (in seconds) that mice spent licking in a 5-min period.
Dose-response relationship was conducted in the range of 3 to 60 mg/kg. Statistical differences in response were determined by one-way analysis of variance with the Dunnett's post-hoc test by using the Prism3 statistical software (GraphPad, Inc., San Diego, Calif.).

Experiment [2] deals with human GABAA receptor subunits (α1β1-3γ2L GABAA receptors). Briefly: Modulation of GABA-evoked currents in Xenopus oocytes (2-electrode clamp), GABA subunit selectivity. The experiment is classed as cell-based. Particulars: for GABA subunit selectivity: modulation of GABA EC10-evoked currents in Xenopus oocytes expressing α1β1-3γ2L, FIGS. 4A and 4B. As to the method: GABA subunit selectivity of etifoxine enantiomers was measured based on their ability to modulate the GABA-evoked currents in Xenopus oocytes.
Receptor mRNA preparation: cDNA clones encoding human GABAA receptor subunits were obtained from commercial sources. mRNA was prepared using conventional techniques with commercially-available “mMessage machine” kits (Ambion). Individual mRNAs (˜1 μg/μL) were stored in aliquots at −80° C.
mRNA injections into Xenopus oocytes: Preparation and micro-injection of oocytes were performed as reported in detail previously (see, Whittemore et al., 1996, Mol Pharmacol 50: 1364-1375). Individual oocytes were injected with 5-50 ng of mRNA at 5:1:1 (GABA). For example, individual oocytes were injected with a 5:1:1 mixture of α1, β1-3, and γ2L (˜5-50 ng of each subunit per cell) to produce expression of α1β1-3γ2L GABAA receptors. Following injections, oocytes were maintained at 16-17° C. in Barth's medium containing (in mM): NaCl, 88; KCl, 1; CaCl2, 0.41; Ca(NO3)2, 0.33; MgSO4, 0.82; NaHCO3, 2.4; HEPES 5; pH=7.4, with 0.1 mg/ml gentamycin sulfate.
Oocyte Electrophysiological recordings: Individual oocytes were placed on a nylon mesh in a 35 mm dish, perfused with frog Ringer (see, Whittemore et al., supra), and voltage clamped at a holding potential of −70 mV. In some cases, simple voltage steps were made to test voltage-dependence. Oocytes were perfused with fresh Ringer or exposed to GABA ±modulators using a custom-made gravity-driven perfusion system consisting of a linear array of 3 capillary tubes. The concentration of GABA used to evoke control currents was adjusted for each individual oocyte to be 10% of the maximal current (EC10) measured in that cell. The concentration of GABA required to evoke EC10 ‘control’ currents varied between ˜2 and 12 μM. […] Data are expressed as % of control currents (% modulation=100*[(modulated current/GABA control current)−1].

Consider `CCNC1=Nc2ccc(Cl)cc2C(C)(c2ccccc2)O1` (single isomer, unassigned) [R-etifoxine, 6-chloro-2-(ethylamino)-4-methyl-4-phenyl-4H-3,1-benzoxazine], for which, in experiment [1], the “analgesic effect in the formalin test (late phase licking)” value is reported as “active”. Besides, the GABA subunit selectivity result in experiment [2] is “little or no GABA subunit selectivity”.

Regarding `CCNC1=Nc2ccc(Cl)cc2C(C)(c2ccccc2)O1` (single isomer, unassigned) [S-etifoxine, 6-chloro-2-(ethylamino)-4-methyl-4-phenyl-4H-3,1-benzoxazine], the GABA subunit selectivity entry in experiment [2] is on record as “shows selectivity for GABA receptor comprising β subunit”. The “selectivity for β2 subunit versus β1 subunit” value in experiment [2] (modulation of GABA EC10-evoked currents in Xenopus oocytes, FIG. 4B) is recorded as “more selective for β2 subunit than β1 subunit”.

The record behind these values is patent publication US20080039453A1, “Enantiomerically pure R-etifoxine, pharmaceutical compositions thereof and methods of their use” (priority 2006, published 2008).
